Holding throughout (type): functional
A short description of assay [1]: cytotoxicity toward Colo320 cells – cell-based, CellTiter-Glo luminescence, IC50, dose response (AID 1117334). Particulars: COLO 320. A general note: ATP-based viability assays read luminescence as a measure of living cells.
For assay [2], the target named is T1, Rac GTPase-activating protein 1 (Homo sapiens, UniProt Q9H0H5).
T1 sequence (Q9H0H5 whole entry): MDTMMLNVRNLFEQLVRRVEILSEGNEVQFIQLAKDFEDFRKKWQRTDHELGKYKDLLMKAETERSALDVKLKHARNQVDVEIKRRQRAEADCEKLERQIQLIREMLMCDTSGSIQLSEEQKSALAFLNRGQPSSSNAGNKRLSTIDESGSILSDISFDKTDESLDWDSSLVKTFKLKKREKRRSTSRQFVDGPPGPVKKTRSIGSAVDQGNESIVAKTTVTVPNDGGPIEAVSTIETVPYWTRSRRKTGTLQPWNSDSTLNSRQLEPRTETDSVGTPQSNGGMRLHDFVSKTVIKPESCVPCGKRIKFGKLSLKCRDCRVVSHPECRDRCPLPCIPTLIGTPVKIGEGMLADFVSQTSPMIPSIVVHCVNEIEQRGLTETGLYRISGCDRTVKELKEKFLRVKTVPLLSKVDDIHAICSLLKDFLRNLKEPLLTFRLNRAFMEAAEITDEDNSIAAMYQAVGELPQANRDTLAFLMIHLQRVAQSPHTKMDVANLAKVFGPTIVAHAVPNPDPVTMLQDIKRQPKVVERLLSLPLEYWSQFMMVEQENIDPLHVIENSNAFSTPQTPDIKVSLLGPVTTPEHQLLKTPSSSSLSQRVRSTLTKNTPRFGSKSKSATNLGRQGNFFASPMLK
Briefly: blockers of MgcRacGAP-driven Rac1 GTP hydrolysis – biochemical, ADP Hunter fluorescence, primary and confirmatory, confirmation (AID 624330).

Assay [3] in a line: viability loss in HeLa cells – cytotoxicity control for MgcRacGAP inhibitor project, dose response (AID 624300).
Assay [4] can be described thus: Reduced DLD-1 viability, concentration-response, CellTiter-Glo luminescence (AID 1117352).
For assay [5], the system named is BJ. The assay is described as follows: growth inhibition of engineered Ras-driven BJ cells – cell-based, alamar blue fluorescence, cherrypicked samples, dose response (AID 2631).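 Note: confirmatory dose-response assay in RAS-dependent BJ fibroblasts engineered with TERT, LT and ST, with cytotoxicity read by fluorescence.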 Particulars: Homo sapiens.
The nature of assay [6]: HCT116 cell viability decrease, GSK3B pretreatment – CellTiter-Glo, IC50, dose response (AID 1117339). Particulars: HCT-116.
Assay [7] concerns the target Intestinal-type alkaline phosphatase (Homo sapiens, UniProt P09923). The assay is described as follows: activation of human intestinal alkaline phosphatase – biochemical, dose response (AID 488873).
The target of assay [8] is T2, Alkaline phosphatase, tissue-nonspecific isozyme (Homo sapiens, UniProt P05186).
T2 sequence (P05186 whole entry): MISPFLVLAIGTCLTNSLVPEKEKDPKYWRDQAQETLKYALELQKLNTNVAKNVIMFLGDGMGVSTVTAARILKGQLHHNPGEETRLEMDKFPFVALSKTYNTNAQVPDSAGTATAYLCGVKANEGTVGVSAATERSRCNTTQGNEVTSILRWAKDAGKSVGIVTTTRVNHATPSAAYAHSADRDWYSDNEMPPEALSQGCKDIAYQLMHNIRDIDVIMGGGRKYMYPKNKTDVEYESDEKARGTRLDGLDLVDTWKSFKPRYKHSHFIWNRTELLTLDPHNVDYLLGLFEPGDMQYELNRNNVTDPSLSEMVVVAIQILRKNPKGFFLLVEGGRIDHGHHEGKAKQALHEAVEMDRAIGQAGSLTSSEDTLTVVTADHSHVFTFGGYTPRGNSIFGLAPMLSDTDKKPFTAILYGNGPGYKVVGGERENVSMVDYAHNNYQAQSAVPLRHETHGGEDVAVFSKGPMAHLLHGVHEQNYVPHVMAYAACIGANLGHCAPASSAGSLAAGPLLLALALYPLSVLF
Briefly: TNAP enzyme inhibition by screening hits, dose response, selectivity assay for mouse IAP inhibitor project, biochemical, human TNAP, uHTS hits (AID 488906).

Assay [9] addresses T3, Sentrin-specific protease 6 (Homo sapiens, UniProt Q9GZR1).
T3 sequence (Q9GZR1 whole entry): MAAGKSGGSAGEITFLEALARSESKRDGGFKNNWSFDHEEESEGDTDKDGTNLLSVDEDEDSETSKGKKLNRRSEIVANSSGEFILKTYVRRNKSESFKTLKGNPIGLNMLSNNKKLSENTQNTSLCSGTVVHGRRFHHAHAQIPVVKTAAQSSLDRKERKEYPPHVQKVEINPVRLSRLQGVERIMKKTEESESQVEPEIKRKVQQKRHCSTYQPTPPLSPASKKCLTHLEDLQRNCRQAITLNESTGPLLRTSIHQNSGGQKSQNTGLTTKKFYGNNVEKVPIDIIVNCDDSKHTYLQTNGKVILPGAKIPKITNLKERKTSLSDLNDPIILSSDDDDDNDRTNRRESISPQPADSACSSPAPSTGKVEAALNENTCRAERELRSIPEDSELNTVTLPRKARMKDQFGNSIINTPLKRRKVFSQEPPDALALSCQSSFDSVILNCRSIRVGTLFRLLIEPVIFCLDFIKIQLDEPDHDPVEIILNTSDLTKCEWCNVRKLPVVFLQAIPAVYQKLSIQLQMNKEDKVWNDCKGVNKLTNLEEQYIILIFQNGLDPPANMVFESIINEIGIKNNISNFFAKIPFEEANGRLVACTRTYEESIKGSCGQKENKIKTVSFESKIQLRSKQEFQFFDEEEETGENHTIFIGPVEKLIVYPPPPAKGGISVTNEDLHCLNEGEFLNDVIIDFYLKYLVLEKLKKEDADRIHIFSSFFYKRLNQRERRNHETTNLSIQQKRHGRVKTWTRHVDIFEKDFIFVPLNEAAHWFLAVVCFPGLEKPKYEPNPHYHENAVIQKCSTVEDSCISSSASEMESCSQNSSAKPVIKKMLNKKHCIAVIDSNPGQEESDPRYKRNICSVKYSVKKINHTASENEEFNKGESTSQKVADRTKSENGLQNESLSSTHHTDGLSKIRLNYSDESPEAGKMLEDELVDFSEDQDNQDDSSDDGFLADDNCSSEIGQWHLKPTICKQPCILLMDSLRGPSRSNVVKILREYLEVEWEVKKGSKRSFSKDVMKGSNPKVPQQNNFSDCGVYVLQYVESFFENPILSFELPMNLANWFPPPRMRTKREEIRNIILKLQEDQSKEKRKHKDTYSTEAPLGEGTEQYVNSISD

The values below come from ChEMBL document CHEMBL1201862, “PubChem BioAssay data set” (2004).

SMILES strings stand for the structures. Activity calls are given as the source filed them.

Intestinal-type alkaline phosphatase, sequence (P09923 whole entry): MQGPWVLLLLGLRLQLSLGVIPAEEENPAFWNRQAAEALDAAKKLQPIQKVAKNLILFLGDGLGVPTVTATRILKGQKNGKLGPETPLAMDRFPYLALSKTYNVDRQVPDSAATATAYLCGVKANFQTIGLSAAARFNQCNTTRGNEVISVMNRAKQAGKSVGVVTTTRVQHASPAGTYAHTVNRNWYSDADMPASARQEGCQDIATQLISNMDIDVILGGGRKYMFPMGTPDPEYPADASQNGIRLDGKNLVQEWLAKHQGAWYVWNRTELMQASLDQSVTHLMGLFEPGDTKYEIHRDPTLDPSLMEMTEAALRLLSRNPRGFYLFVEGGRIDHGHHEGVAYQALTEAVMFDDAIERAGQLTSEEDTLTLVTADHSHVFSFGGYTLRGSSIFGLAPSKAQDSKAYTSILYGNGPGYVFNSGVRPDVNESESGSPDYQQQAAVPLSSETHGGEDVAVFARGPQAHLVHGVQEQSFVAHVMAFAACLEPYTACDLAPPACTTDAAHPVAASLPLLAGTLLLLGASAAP

In general, IC50 refers to the point on the concentration scale where inhibition reaches its midpoint. By CC50 is commonly meant the concentration that lowers cell viability or growth by half. Usually EC50 stands for the midpoint of the concentration-response curve. As to `Cc1cc2nc3ccc(N(C)C)cc3[s+]c2cc1N` [TOLONIUM CHLORIDE], the IC50 is 0.987 µM (active) in assay [1], 32.4 µM (active) in [2], 9.38 µM (inactive) in assay [4] and 1.69 µM (active) in [6]. Also, the CC50 in assay [3] was 25 µM (active). Moreover, the EC50 in [5] was 0.491 µM (inconclusive).

For `Oc1ccc(/C=N/Nc2cc(N3CCCC3)nc(N3CCCC3)n2)cc1O`, the EC50 in [7] was > 100 µM (inactive). The IC50 in assay [8] is > 100 µM (inactive).

As to `CCCOc1cc2c(C#N)c(N3CCCC3)nc(N)c2c(N)n1`, the IC50 in [9] was 3.96 µM (active).
